Results published in patent US8067456B2 (AEterna Zentaris GmbH, priority 2004, dated 2011).
≈ marks a conversion by molar mass, not a printed value.

Columns and labels:
[1] = Metabolic stability in rat liver microsomes; type: in vitro ADME; conditions: 1 μM, 37° C., NADPH
Procedure: The metabolic stability in relation to liver microsomes (species human, rat) was determined in accordance with the following description: the substances were incubated at a test concentration of 1 […] An HPLC MS/MS method was subsequently used to quantify the unmetabolized amount of starting compound relative to 100%.

[2] = Saturation solubility in water; type: physicochemical; conditions: water, thermodynamic from solid; maximum of 1% DMSO added, HPLC UV
Procedure: The saturation solubility in water was determined in accordance with the following description: to initiate dissolving of the substances and to improve the wetting of the samples, a maximum of 1% DMSO was added. The content was checked by using an HPLC UV method.

[3] = tested on: castrated rats; test: LH concentration suppression in the plasma of castrated rats; type: in vivo, rat; conditions: 100 mg/kg oral in Solutol HS15/1,2-propane-diol (3:1)
Procedure: The LH concentration in the plasma of castrated rats was measured using the rat luteinizing hormone (rLH) enzyme immunoassay (EIA) system ELISA (RPN 2562) from Amersham Pharmacia Biotech or of LH RIA-AH R002 rats; from Biocode-Hycel, Liege, Belgium. All other chemicals used were from commercial sources in the highest purity available.
10 days before the start of the test, male Sprague Dawley rats (Harlan Winkelmann, Germany) weighing 190-220 g were anesthetized with ether and castrated and provided with a silicone catheter for permanent blood sampling.
At the start of the test, before administration of the substance, blood samples were taken and the LH level determined. The substance was then administered orally in the desired concentration. The number of animals used in each group was 8. At the stated times, further blood samples were taken. The blood was collected in heparinized sample tubes on ice, and the plasma was obtained by centrifugation at 3000 g for 10 minutes. The plasma samples were stored at −20° C. until the LH concentration was measured by ELISA or RIA. The LH concentration was determined by an ELISA or RIA in duplicate determination in accordance with the manufacturer's (Amersham Pharmacia Biotech; Biocode-Hycel) instructions.
All the other data points for each individual animal were calculated as relative concentration compared with the LH concentration before treatment.

[4] = target: T1, LHRH receptor (Rattus norvegicus, UniProt P30969); test: LHRH receptor-ligand binding assay (membrane preparations from rat pituitary cells); conditions: competition with 0.05 nM [125I][D-Trp6]-LHRH, 90 min, 4° C., rat pituitary membranes
T1 construct: rat pituitary cells which naturally strongly express the LHRH receptor; from tissue; host or cells: rat pituitary cells (membrane preparation)
T1 sequence (P30969 1-327): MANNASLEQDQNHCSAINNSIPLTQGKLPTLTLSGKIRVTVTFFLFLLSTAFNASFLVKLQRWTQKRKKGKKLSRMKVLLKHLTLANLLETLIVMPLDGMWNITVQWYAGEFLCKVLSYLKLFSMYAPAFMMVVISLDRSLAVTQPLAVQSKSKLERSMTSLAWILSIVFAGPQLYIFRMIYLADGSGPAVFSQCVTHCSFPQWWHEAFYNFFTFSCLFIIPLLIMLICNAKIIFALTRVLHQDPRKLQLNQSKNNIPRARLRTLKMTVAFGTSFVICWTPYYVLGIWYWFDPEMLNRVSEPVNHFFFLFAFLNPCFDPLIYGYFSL
Procedure: Heterologous competition experiments were carried out using membrane preparations from rat pituitary cells which naturally strongly express the LHRH receptor. The ligand used in this case was [^125I][D-Trp^6]-LHRH in a concentration of 0.05 nM. Unlabeled [D-Trp^6]-LHRH was used in a concentration of 1 μM, or the test substance was used in the desired concentration, for competition. After an incubation time of 90 minutes at 4° C., the bound ligand was measured by scintillation (Halmos et al., Proc. Natl. Acad. Sci. USA, 1996, 93, 2398).
The result obtained was the percentage proportion of bound ligand in the presence of the competitor related to the specifically bound proportion of the control (see result for selected compounds in Table 3). EC50 values were calculated by nonlinear regression analysis of the competition plots.

[5] = tested on: LHRH-stimulated LH secretion from rat pituitary cells; test: Inhibition of LHRH-induced LH secretion from rat pituitary cells in vitro; type: cell-based; conditions: LHRH 10 nM, 3 hours
Procedure: The LH concentration in cell culture supernatants was measured using the rat luteinizing hormone (rLH) enzyme immunoassay (EIA) system ELISA (RPN 2562) from Amersham Pharmacia Biotech. All other chemicals used were from commercial sources in the highest purity available.
Juvenile male Wistar rats (Harlan Winkelmann, Germany) were sacrificed by decapitation, and the pituitaries were removed and taken up in Hanks' buffer (HBSS) with 0.3% BSA and 10 mM HEPES (pH 7.4). Pituitaries from 20 rats were required to carry out one experiment. The cells of the anterior lobe of the pituitary were separated from the remaining tissue by incubation in Hanks' buffer with 10 mM HEPES (pH 7.4), 0.3% BSA, 1 mg/ml hyaluronidase (type VIII), 1 mg/ml soybean trypsin inhibitor, 10 μg/ml DNAsel and 1 mg/ml papain at 37° C. for 30 minutes A sterile Pasteur pipette was used to disperse the cells, and they were subsequently pelleted by centrifugation. The cells were seeded in a density of 2.5×10^5 cells/well of a collagen-coated 48-well plate (Becton Dickinson) in DMEM medium (Invitrogen Life Technologies, Germany) with 10% fetal calf serum (FCS; Invitrogen Life Technologies, Germany), 10 mill nonessential amino acids and 10 mill Pen/Strep (penicillin/streptomycin).
The medium was changed after incubation at 37° C., 5% CO2 and 95% humidity for 48 h. The medium was replaced by LHRH-containing (10 nM) medium or medium with LHRH (10 nM) and test substance in the concentration indicated (table). After a further incubation for 3 hours, the cell supernatant was harvested and frozen at −20° C. The LH content was determined by means of ELISA in triplicate determination in accordance with the manufacturer's (Amersham Pharmacia Biotech) instructions.
In the following table, “% Inhibition” describes the quotient of LHRH-stimulated LH secretion with (“LH (ng/ml)” and without the addition of the test substance. The values originate from different, independent experiments.

## CCC(C)[C@H](NC(=O)OCc1ccccc1)C(=O)N[C@]1(C(=O)N[C@H](C(N)=S)C(C)CC)CCc2[nH]c3c(Cl)cc(Cl)cc3c2C1 (stereo partly drawn) [Compound 7, benzyl {(S)-1-[(R)-6,8-dichloro-3-((S)-2-methyl-1-thiocarbamoylbutylcarbamoyl)-2,3,4,9-tetrahydro-1H-carbazol-3-ylcarbamoyl]-2-methylbutyl}carbamate]
[1]
  recovery at 1 μM: 78%
[2]
  solubility: 54.6 µg/mL (≈ 80.9 µM)
[3]; time 0 h
  Relative LH concentration (%) (averages ± SEM compared with the concentration before treatment): 91.8 ± 19.1%
[3]; time +4 h
  Relative LH concentration (%) (averages ± SEM compared with the concentration before treatment): 19.6 ± 8.9%
[3]; time +6 h
  Relative LH concentration (%) (averages ± SEM compared with the concentration before treatment): 10.1 ± 3.2%
[3]; time +24 h
  Relative LH concentration (%) (averages ± SEM compared with the concentration before treatment): 65.1 ± 13.9%
[3]; time +48 h
  Relative LH concentration (%) (averages ± SEM compared with the concentration before treatment): 110.6 ± 33.0%
[3]; time +72 h
  Relative LH concentration (%) (averages ± SEM compared with the concentration before treatment): 268.4 ± 93.0%
[3]; time −2 h (before treatment)
  Relative LH concentration (%) (averages ± SEM compared with the concentration before treatment): 110.8 ± 12.2%
[3]; time −4 h (before treatment)
  Relative LH concentration (%) (averages ± SEM compared with the concentration before treatment): 97.4 ± 15.3%
[4]
  EC50: 6.9 nM
[5]; Rattus norvegicus, test substance 3.3 × 10^−8 M, read-out: % Inhibition
  inhibition at 0.033 µM: 83%
[5]; Rattus norvegicus, test substance 3.3 × 10^−9 M
  inhibition at 0.0033 µM: 43%
[5]; test substance 3.3 × 10^−8 M
  LH (ng/ml) ± SD: 79.9 ± 15.0 ng/mL
[5]; test substance 3.3 × 10^−9 M
  LH (ng/ml) ± SD: 194.0 ± 13.2 ng/mL
